Measured values published in PubChem BioAssay AID2060623 (Molecular Pharmacology Branch, DTP, NCI, 2025).
Where “and” joins values, the source holds several entries; their conditions need not be identical. Equal entries are not always repeated.

Tested on: 227483-062-R1-J1-PDC complex spheroids with HUVEC/MSC, viability
Assay: Anticancer human tumor 227483-062-R1-J1-PDC patient-derived pancreatic carcinoma cell line growth inhibition [CLK]
Conditions: for viability, T/C: stronger effect = lower value; for IC50: curve of compound
From the text: A high-throughput screen of multi-cell type tumor spheroids was designed to identify active combinations of […] and targeted small molecules. Complex spheroids include a stromal component modeled by human endothelial cells (HUVEC) and fibroblasts modeled by human mesenchymal stem cells (MSCs). The concentration ranges selected for each drug and investigational agent were based upon clinically achievable concentrations if the clinical Cmax of the agent was known.
Compounds. The drugs and investigational agents: cirtuvivint (SM08502; NSC835563), CC-671 (NSC850746), vemurafenib (NSC761431), tapotoclax (NSC804041), sotorasib (NSC818433), adagrasib (NSC831453), MRTX-1133 (NSC836407), BAY2416964 (NSC825713), copanlisib (NSC816437), inavolisib (NSC800729), abemaciclib (NSC768073), osimertinib (NSC779217), entinostat (NSC756642), eltanexor (KPT-8602, NSC794443), venetoclax (NSC766270), ceralasertib (NSC777638), bortezomib (NSC756655), olaparib (NSC753686), talazoparib (NSC767125), alisertib (NSC759677), peposertib (NSC802822), gemcitabine (NSC613327), 5-fluorouracil (NSC19893), SN-38 (NSC673596), oxaliplatin (NSC266046), paclitaxel (NSC125973), and doxorubicin (NSC123127), were obtained from the National Cancer Institute (NCI) Developmental Therapeutics Program Chemical Repository. The FDA-approved anticancer drug set is available from the Developmental Therapeutics Program at https://dtp.cancer.gov/organization/dscb/obtaining/available plates.htm. […] The stock solutions were prepared in dimethyl sulfoxide (DMSO, Sigma-Aldrich, St. Louis, MO, cat. D2650), except for the platinum complexes which were prepared in saline (Quality Biological, Gaithersburg, MD, cat. 114-055-101), at 800-fold the tested concentration and stored at -70 degrees C prior to their use. All drugs and investigational agents were tested over a range starting from a high concentration at or near the clinical Cmax and decreasing in half-log increments. If the clinical Cmax for an agent had not been determined, the highest concentration tested was 10 microM.
Cell Culture. All cells were maintained in an incubator at 37 degrees C and 5% CO2 with 95% humidity. The PDC lines were cultured according to standard operating procedures established by the NCI PDMR. Briefly, all PDCs were thawed and cultured in Matrigel-coated flasks prepared with a working solution of 1X Ham's F-12 nutrient mix, without supplementation (Invitrogen, Waltham, MA, cat. 11765054), 100 U/mL penicillin-streptomycin (Invitrogen, cat. 15140122), and 2.5% Matrigel (Corning Inc., Corning, NY, cat. 354248) for the first three passages. The 947758-054-R-J2-PDC line was cultured in 6B/Colon 1A media, which includes advanced DMEM/F-12 (Thermo Fisher Scientific, cat. 12634028), 10 mM HEPES (Thermo Fisher Scientific, cat. 15630080), 1X GlutaMAX supplement (Thermo Fisher Scientific, cat. 35050061), 0.1 mg/mL primocin (InvivoGen, cat. ant-pm-2), 10% defined fetal bovine serum, heat inactivated (HyClone Laboratories Inc., cat. SH30070.03HI), 1.25 mM N-Acetyl-L-cysteine (Sigma-Aldrich, cat. A9165), 10 mM nicotinamide (Sigma-Aldrich, cat. N0636), 1X B-27 supplement (Thermo Fisher Scientific, cat. 17504044), 1X N-2 supplement (Thermo Fisher Scientific, cat. 17502048), and 10 microM Y-27632 dihydrochloride (Tocris Bioscience, cat. 1254). The 876862-298-R-J1-PDC was cultured in 6E media, which includes all 6B/Colon 1A media components plus 50% L-WRN conditioned media (ATCC, cat. CRL-3276), 50 ng/mL recombinant human EGF recombinant protein (hEGF; Thermo Fisher Scientific, cat. PHG0311), 10 ng/mL recombinant human fibroblast growth factor 10 (hGFG-10; PeproTech, cat. 100-26), 1 ng/mL recombinant human fibroblast growth factor 2 (hFGF-2; PeproTech, cat. 100-18B), and 1 µM prostaglandin E2 (PGE2; Tocris, cat. 2296). The 227483-062-R1-J1-PDC line was cultured in Panc media, containing all 6E components except hFGF-2, with the addition of 500 nM SB-431542 (Selleckchem, cat. S1067) and 10 nM gastrin (Tocris, cat. 3006). […]
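Note: spheroids exposed to compounds for seven days before readout.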
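Throughout, for viability, T/C: percent of DMSO vehicle control luminescence as 100% viability.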

**Q.** Which viability, T/C (compound 0.0316 µM) does the source give for `CC(=O)O[C@H]1C(=O)[C@@]2(C)[C@H]([C@H](OC(=O)c3ccccc3)[C@]3(O)C[C@H](OC(=O)[C@H](O)[C@@H](NC(=O)c4ccccc4)c4ccccc4)C(C)=C1C3(C)C)[C@]1(OC(C)=O)CO[C@@H]1C[C@@H]2O` here?
**A.** 37.1% and 25.6%

**Q.** What about the viability, T/C (compound 0.1 µM) of the same compound?
**A.** 28.5% and 24%

**Q.** And the viability, T/C (compound 0.316 µM)?
**A.** 28.2% and 29.5%

**Q.** What about the viability, T/C (compound 1 µM) of the same compound?
**A.** 37.5% and 31.8%

**Q.** And the viability, T/C (compound 3.16 µM)?
**A.** 50.2% and 38.9%

**Q.** What about the viability, T/C (compound 10 µM) of the same compound?
**A.** 60.8% and 52.3%

**Q.** What about the IC50 of the same compound?
**A.** < 31.6 nM

**Q.** `COc1ccc([C@@H](O)c2cc(-c3ncnc4cc(N5CCOCC5)ccc34)c(F)cc2Cl)nn1` was tested. Which viability, T/C (compound 0.0316 µM) did it give?
**A.** 102% and 90.1%

**Q.** What about the viability, T/C (compound 0.1 µM) of the same compound?
**A.** 101% and 86%

**Q.** What about the viability, T/C (compound 0.316 µM) of the same compound?
**A.** 94.7% and 86.4%

**Q.** What about the viability, T/C (compound 1 µM) of the same compound?
**A.** 95.4% and 98.6%

**Q.** What about the viability, T/C (compound 3.16 µM) of the same compound?
**A.** 92.6% and 80.2%

**Q.** And the viability, T/C (compound 10 µM)?
**A.** 92.5% and 71%

**Q.** And the IC50?
**A.** > 10000 nM

**Q.** Which results are given for `COc1cccc2c1C(=O)c1c(O)c3c(c(O)c1C2=O)CC(O)(C(=O)CO)CC3OC1CC(N)C(O)C(C)O1` (stereo unspecified)?
**A.** viability, T/C (compound 0.0316 µM): 90% and 75.6%; viability, T/C (compound 0.1 µM): 108% and 58%; viability, T/C (compound 0.316 µM): 54.2% and 42.7%; viability, T/C (compound 1 µM): 34.5% and 24.4%; viability, T/C (compound 3.16 µM): 7.31% and 2.77%; viability, T/C (compound 10 µM): 8.24% and 9.84%; IC50: 483 nM and 188 nM
